According to PMC9147789, “Development and Validation of a Novel LC-MS/MS Method for the Simultaneous Determination of Abemaciclib, Palbociclib, Ribociclib, Anastrozole, Letrozole, and Fulvestrant in Plasma Samples: A Prerequisite for Personalized Breast Cancer Treatment” (Pharmaceuticals, 2022):

Columns and labels:
[1] = Stability of the analytes in plasma (bench top, autosampler, freeze-thaw, long-term); format: physicochemical, human; conditions: for Stability Bias (%) 1 FT Cycle (30 min, −18–25 °C) / Stability Bias (%) 2 FT Cycles (30 min, −18–25 °C) / Stability Bias (%) 3 FT Cycles (30 min, −18–25 °C) / Stability Bias (%) Long-Term (2 Weeks, −18 °C): plasma; for Stability Bias (%) 1 FT Cycle (30 min, −18–25 °C) / Stability Bias (%) 2 FT Cycles (30 min, −18–25 °C) / Stability Bias (%) 3 FT Cycles (30 min, −18–25 °C) / Stability Bias (%) Long-Term (2 Weeks, −18 °C) / Stability Bias (%) Autosampler (10 h, 10 °C): N = 3; for Stability Bias (%) Autosampler (10 h, 10 °C): processed plasma sample; for Stability Bias (%) Bench Top (2 h, 25 °C): unprocessed plasma, N = 3, vs fresh QC
Description: Stability of the stock and working solutions was determined in the preliminary studies. […] Patient plasma samples were stored long-term at −80 °C. Since adequate stability of plasma samples was proven at −18 °C, it was deemed acceptable at lower temperatures as well. Lower- and higher-concentration QC samples were prepared in triplicate for each condition and time point and were analyzed against QC samples freshly prepared in triplicate.

[2] = parameters: method as in PMID 28540640; conditions: plasma; reported PK/PD studies; cited from earlier work
[3] = plasma; cited from earlier work
[4] = LC-MS/MS quantitation of drugs in single-point patient plasma samples (therapeutic drug monitoring); format: in vivo, human
Description: Samples from ten women (ages 35 to 78, median 50.5 years) receiving regular treatment with a combination of a CDK4/6 inhibitor (PAL, RIB or ABE) and endocrine therapy (ANA, LET, FUL or exemestane, EXE) were obtained and analyzed using this LC-MS method. The samples were mostly taken in the elimination phase, during the patients’ regular visit to the hospital before the next dose administration, except in the case of patient 4 (sampling 1 h after dose administration). The aromatase inhibitors and ABE are continuously administered as single daily doses, FUL is a once-monthly intramuscular injection, and the dosing regimen of PAL and RIB involves a week off treatment every 21 days to minimize treatment-induced neutropenia.
The samples were analyzed against freshly prepared calibration curves. The results are listed in Table 7, while the accompanying chromatograms and mass spectra are included in the Supplementary Materials, Section 1, Figures S1–S29.
Healthy and patient blood samples were collected and pre-treated at the University Hospital Centre Zagreb, with signed informed consent. Patients receiving a combination of a CDK4/6 inhibitor and endocrine therapy as regular treatment for at least 4 months were enrolled.
Whole blood was collected in containers with K2-EDTA anticoagulant and centrifuged for 10 min at 1500 g; the supernatant was then withdrawn and stored at −18 °C (blank plasma) or −80 °C (patients’ plasma). Hemolyzed plasma was obtained by briefly freezing a whole blood sample at −18 °C before continuing with the procedure.
(§1) Calibration and QC samples were prepared by diluting 5 µL of the appropriate working solutions of the analytes with 45 µL of blank plasma in 1.5 mL polypropylene centrifuge tubes. In case of patient sample analysis, an aliquot of 50 µL of patient plasma was used. Proteins were precipitated by adding 200 µL of ACN, after which the samples were vortex-mixed for 10 s and centrifuged at 2000 g for 5 min. The resulting supernatant was collected and 200 µL was evaporated to dryness in a vacuum evaporator at room temperature. The dry residue was dissolved in 40 µL of 65% methanol, while 5 µL was injected into the chromatographic system.

[5] = Clinical pharmacokinetic evaluation of RIB in one patient, first day of a treatment cycle, non-compartmental analysis; format: in vivo, human; conditions: 600 mg oral dose
Description: Finally, we applied our fully validated method to evaluate the pharmacokinetic disposition of RIB in a patient during the first day of a treatment cycle. The plasma samples were prepared in the same manner as the single-point study samples and quantitated using a freshly prepared calibration curve. No additional dilution or preconcentration was necessary, as all the determined concentrations fell within the validated range. The corresponding data are available in Table S1 of the Supplementary Materials, Section 2 (Results of the pharmacokinetic study).
Pharmacokinetic data were analyzed with the PK solver Excel extension, using the linear trapezoidal model for non-compartmental analysis of plasma data after extravascular input. […] The beginning of the elimination phase was estimated around three hours after dosing. Ribociclib is administered as an instant release tablet dosage form, so no absorption lag was neither expected nor observed.
as §1

[6] = higher QC level (RIB 2500, ABE 1500, PAL 250, ANA 100, LET 250, FUL 500 ng/mL)
[7] = lower QC level (RIB 62.5, ABE 37.5, PAL 6.2, ANA 2.5, LET 6.25, FUL 12.5 ng/mL)

SMILES: CCN1CCN(Cc2ccc(Nc3ncc(F)c(-c4cc(F)c5nc(C)n(C(C)C)c5c4)n3)nc2)CC1 [ABE, abemaciclib]
- Stability Bias (%) 1 FT Cycle (30 min, −18–25 °C) [1, 6]: 9.37%
- Stability Bias (%) 2 FT Cycles (30 min, −18–25 °C) [1, 6]: 5.68%
- Stability Bias (%) 3 FT Cycles (30 min, −18–25 °C) [1, 6]: 1.13%
- Stability Bias (%) Long-Term (2 Weeks, −18 °C) [1, 6]: 3.09%
- Stability Bias (%) 1 FT Cycle (30 min, −18–25 °C) [1, 7]: 13.23%
- Stability Bias (%) 2 FT Cycles (30 min, −18–25 °C) [1, 7]: −7.43%
- Stability Bias (%) 3 FT Cycles (30 min, −18–25 °C) [1, 7]: 14.07%
- Stability Bias (%) Long-Term (2 Weeks, −18 °C) [1, 7]: 7.60%
- Stability Bias (%) Autosampler (10 h, 10 °C) [1, 6]: 14.88%
- Stability Bias (%) Autosampler (10 h, 10 °C) [1, 7]: 11.51%
- Stability Bias (%) Bench Top (2 h, 25 °C) [1, 6]: −0.10%
- Stability Bias (%) Bench Top (2 h, 25 °C) [1, 7]: 9.09%
- Minimal threshold concentration for efficacy [2]: 200 ng/mL
- Expected literature range Cmin–Cmax [3]: 102.65–1381 [25] ng/mL
- Plasma Concentration ([4]; patient 1, ABE 300 mg daily, continuous, before next dose): 425.79 ng/mL

SMILES: CN(C)C(=O)c1cc2cnc(Nc3ccc(N4CCNCC4)cn3)nc2n1C1CCCC1 [RIB, ribociclib]
- Stability Bias (%) 1 FT Cycle (30 min, −18–25 °C) [1, 6]: 11.10%
- Stability Bias (%) 2 FT Cycles (30 min, −18–25 °C) [1, 6]: −1.66%
- Stability Bias (%) 3 FT Cycles (30 min, −18–25 °C) [1, 6]: −4.69%
- Stability Bias (%) Long-Term (2 Weeks, −18 °C) [1, 6]: −10.69%
- Stability Bias (%) 1 FT Cycle (30 min, −18–25 °C) [1, 7]: 7.88%
- Stability Bias (%) 2 FT Cycles (30 min, −18–25 °C) [1, 7]: 1.69%
- Stability Bias (%) 3 FT Cycles (30 min, −18–25 °C) [1, 7]: 6.00%
- Stability Bias (%) Long-Term (2 Weeks, −18 °C) [1, 7]: 13.89%
- Stability Bias (%) Autosampler (10 h, 10 °C) [1, 6]: −6.47%
- Stability Bias (%) Autosampler (10 h, 10 °C) [1, 7]: 8.95%
- Stability Bias (%) Bench Top (2 h, 25 °C) [1, 6]: 4.96%
- Stability Bias (%) Bench Top (2 h, 25 °C) [1, 7]: 6.01%
- Elimination constant ([5]; non-compartmental analysis, PK solver): 0.022 h⁻¹
- Cmax ([5]; human, first day of treatment cycle, plasma, read-out: Maximum concentration (Cmax)): 1830 ng/mL
- half-life ([5]; human, plasma, non-compartmental analysis, PK solver, read-out: Elimination half-life (converted)): 1890 min
- concentration at 0 h ([5]; human, plasma, t 0.00 h, read-out: CRIB (ng/mL) plasma concentration): 945 ng/mL
- concentration at 0.25 h ([5]; human, plasma, t 0.25 h, read-out: CRIB (ng/mL) plasma concentration): 1050 ng/mL
- concentration at 0.5 h ([5]; human, plasma, t 0.50 h, read-out: CRIB (ng/mL) plasma concentration): 1240 ng/mL
- concentration at 1 h ([5]; human, plasma, t 1.00 h, read-out: CRIB (ng/mL) plasma concentration): 1520 ng/mL
- concentration at 3 h ([5]; human, plasma, t 3.00 h, read-out: CRIB (ng/mL) plasma concentration): 1830 ng/mL
- concentration at 6 h ([5]; human, plasma, t 6.00 h, read-out: CRIB (ng/mL) plasma concentration): 1710 ng/mL
- concentration at 12 h ([5]; human, plasma, t 12.00 h, read-out: CRIB (ng/mL) plasma concentration): 1500 ng/mL
- Expected literature range Cmin–Cmax [3]: 711–3500 [24] ng/mL
- concentration at 24 day ([4]; human, plasma, oral, patient 2, RIB 600 mg daily, sampling day 24 of cycle (off-treatment week)): 57.4 ng/mL
- concentration at 16 day ([4]; human, plasma, oral, patient 3, RIB 600 mg daily, sampling day 16 (trough, steady state)): 682 ng/mL
- concentration at 1 h ([4]; human, plasma, oral, patient 4, RIB 600 mg daily, sampling day 1, 1 h after dose administration): 1520 ng/mL
- concentration at 12 day ([4]; human, plasma, oral, patient 5, RIB 600 mg daily, sampling day 12 (trough, steady state)): 1190 ng/mL
- concentration at 28 day ([4]; human, plasma, oral, patient 6, RIB 600 mg daily, sampling day 28 (off-treatment week)): 27.2 ng/mL
- concentration at 27 day ([4]; human, plasma, oral, patient 7, RIB 600 mg daily, sampling day 27 (off-treatment week)): 40.7 ng/mL
